ChEMBL document CHEMBL3046848, “Synthesis and biological evaluation of novel series of thieno[2,3-d]pyrimidine derivatives as anticancer and antimicrobial agents” (2013)
≈ marks a conversion by molar mass, not a printed value.

What was measured:
Format in all cases: functional
[1] = test system: Pseudomonas aeruginosa; assay: Antimicrobial activity against Pseudomonas aeruginosa ATCC9027 assessed as diameter of growth inhibition zone at 1 mg/ml after 24 hr by agar cup diffusion method; conditions: ATCC9027, 24 h, read-out: IZ
[2] = test system: Escherichia coli; assay: Antimicrobial activity against Escherichia coli ATCC8739 assessed as diameter of growth inhibition zone at 1 mg/ml after 24 hr by agar cup diffusion method; conditions: ATCC8739, 24 h, read-out: IZ
[3] = test system: Staphylococcus aureus; assay: Antimicrobial activity against Staphylococcus aureus ATCC6538P assessed as diameter of growth inhibition zone at 1 mg/ml after 24 hr by agar cup diffusion method; conditions: read-out: IZ
[4] = test system: Escherichia coli; assay: Antimicrobial activity against Escherichia coli ATCC8739 assessed as growth inhibition after 48 hr by two-fold serial dilution method; conditions: ATCC8739, 48 h
[5] = test system: Candida albicans; assay: Antimicrobial activity against Candida albicans ATCC2091 assessed as diameter of growth inhibition zone at 1 mg/ml after 48 hr by agar cup diffusion method; conditions: ATCC2091, 48 h, read-out: IZ
[6] = test system: Pseudomonas aeruginosa; assay: Antimicrobial activity against Pseudomonas aeruginosa ATCC9027 assessed as growth inhibition after 48 hr by two-fold serial dilution method; conditions: ATCC9027, 48 h
[7] = test system: Staphylococcus aureus; assay: Antimicrobial activity against Staphylococcus aureus ATCC6538P assessed as growth inhibition after 48 hr by two-fold serial dilution method
[8] = test system: IGROV-1; assay: Growth inhibition of Homo sapiens (human) IGROV1 cells at 10 uM after 48 hr by SRB assay; conditions: IGROV-1, 48 h, read-out: GI
[9] = test system: SK-MEL-2; assay: Growth inhibition of Homo sapiens (human) SK-MEL-2 cells at 10 uM after 48 hr by SRB assay; conditions: SK-MEL-2, 48 h, read-out: GI
[10] = test system: TK-10; assay: Growth inhibition of Homo sapiens (human) TK10 cells at 10 uM after 48 hr by SRB assay; conditions: TK-10, 48 h, read-out: GI
[11] = test system: SF-295; assay: Growth inhibition of Homo sapiens (human) SF295 cells at 10 uM after 48 hr by SRB assay; conditions: SF-295, 48 h, read-out: GI
[12] = test system: Candida albicans; assay: Antimicrobial activity against Candida albicans ATCC2091 assessed as growth inhibition after 48 hr by two-fold serial dilution method; conditions: ATCC2091, 48 h

Row | MIC [4] [µg/mL] | MIC [6] [µg/mL] | MIC [7] [µg/mL] | MIC [12] [µg/mL] | Compound | zone of inhibition at 1000 µg/mL [1] [mm] | zone of inhibition at 1000 µg/mL [2] [mm] | zone of inhibition at 1000 µg/mL [3] [mm] | zone of inhibition at 1000 µg/mL [5] [mm] | inhibition of growth at 10 µM [8] [%] | inhibition of growth at 10 µM [9] [%] | inhibition of growth at 10 µM [10] [%] | inhibition of growth at 10 µM [11] [%]
1 | 125 (≈ 497 µM) | – | – | – | CCCn1cnc2sc(C(N)=O)c(C)c2c1=O | 12 | 17 | 10 | 15 | – | – | – | –
2 | – | – | – | – | Cc1c(C(N)=O)sc2ncn(-c3ccccn3)c(=O)c12 | 12 | 13 | 10 | 15 | – | – | – | –
3 | – | – | – | – | Cc1c(C(N)=O)sc2nc(SCc3ccccc3)n(-c3ccccc3)c(=O)c12 | 12 | 15 | 10 | 15 | – | – | – | –
4 | – | – | – | – | Cc1c(C(N)=O)sc2nc(S(C)(=O)=O)n(-c3ccccc3)c(=O)c12 | 12 | 16 | 11 | 15 | – | – | – | –
5 | – | – | – | – | CCS(=O)(=O)c1nc2sc(C(N)=O)c(C)c2c(=O)n1-c1ccccc1 | 12 | 13 | 10 | 15 | – | – | – | –
6 | – | – | – | – | Cc1c(C(N)=O)sc2nc(S(=O)(=O)Cc3ccccc3)n(-c3ccccc3)c(=O)c12 | 12 | 15 | 10 | 15 | – | – | – | –
7 | – | 125 (≈ 335 µM) | – | – | Cc1c(C(N)=O)sc2nc(SCC3CO3)n(-c3ccccc3)c(=O)c12 (stereo not drawn) | 17 | 15 | 10 | 15 | – | – | – | –
8 | – | – | – | – | Cc1c(C(N)=O)sc2nc(SCC(O)CN3CCOCC3)n(-c3ccccc3)c(=O)c12 (stereo not drawn) | 12 | 13 | 10 | 15 | – | – | – | –
9 | – | – | – | – | Cc1c(C(N)=O)sc2nc(SCC(O)CN3CCCCC3)n(-c3ccccc3)c(=O)c12 (stereo not drawn) | 12 | 15 | 10 | 15 | – | – | – | –
10 | – | – | – | – | Cc1c(C(N)=O)sc2nc(C)n(NC(=S)NCc3ccccc3)c(=O)c12 | 12 | 13 | 12 | 15 | – | – | – | –
11 | 125 (≈ 246 µM) | – | – | – | Cc1c(C(N)=O)sc2nc(C)n(/N=c3\scc(-c4ccc(Cl)cc4)n3-c3ccccc3)c(=O)c12 | 12 | 16 | 10 | 15 | – | – | – | –
12 | – | – | – | – | Cc1c(C(N)=O)sc2nc(C)n(/N=c3\scc(-c4ccc(Br)cc4)n3-c3ccccc3)c(=O)c12 | 12 | 15 | 10 | 15 | – | – | – | –
13 | – | 125 (≈ 239 µM) | – | – | Cc1c(C(N)=O)sc2nc(C)n(/N=c3\scc(-c4ccc(Cl)cc4)n3Cc3ccccc3)c(=O)c12 | 17 | 15 | 10 | 15 | – | – | – | –
14 | – | – | – | – | Cc1c(C(N)=O)sc2nc(C)n(/N=c3\scc(-c4ccc(Br)cc4)n3Cc3ccccc3)c(=O)c12 | 12 | 15 | 11 | 15 | – | – | – | –
15 | – | – | 250 (≈ 605 µM) | – | Cc1c(C(N)=O)sc2nc(C)n(/N=C3\SCC(=O)N3c3ccccc3)c(=O)c12 | 12 | 15 | 14 | 16 | – | – | – | –
16 | – | – | 250 (≈ 585 µM) | – | Cc1c(C(N)=O)sc2nc(C)n(/N=C3\SCC(=O)N3Cc3ccccc3)c(=O)c12 | 12 | 15 | 14 | 16 | – | – | – | –
17 | – | – | – | – | Cc1c(C(N)=O)sc2nc(S)n(-c3ccccc3)c(=O)c12 | 12 | 15 | 12 | 15 | – | – | – | –

Row | MIC [4] [µg/mL] | MIC [6] [µg/mL] | MIC [7] [µg/mL] | MIC [12] [µg/mL] | Compound | zone of inhibition at 1000 µg/mL [1] [mm] | zone of inhibition at 1000 µg/mL [2] [mm] | zone of inhibition at 1000 µg/mL [3] [mm] | zone of inhibition at 1000 µg/mL [5] [mm] | inhibition of growth at 10 µM [8] [%] | inhibition of growth at 10 µM [9] [%] | inhibition of growth at 10 µM [10] [%] | inhibition of growth at 10 µM [11] [%]
18 | – | – | – | – | Cc1c(C(N)=O)sc2nc(SCC(=O)Nc3ccccc3)n(-c3ccccc3)c(=O)c12 | 12 | 15 | 10 | 15 | – | – | – | –
19 | – | – | – | – | Cc1c(C(N)=O)sc2nc(SCC(=O)Nc3ccc(Cl)cc3)n(-c3ccccc3)c(=O)c12 | 12 | 15 | 10 | 15 | 79.4 | 116 | 47.2 | –
20 | – | – | – | – | Cc1ccc(NC(=O)CSc2nc3sc(C(N)=O)c(C)c3c(=O)n2-c2ccccc2)cc1 | 12 | 15 | 10 | 15 | – | – | – | –
21 | – | – | 250 (≈ 669 µM) | – | CC(=O)CSc1nc2sc(C(N)=O)c(C)c2c(=O)n1-c1ccccc1 | 12 | 15 | 13 | 15 | – | – | – | –
22 | – | – | – | – | CCOC(=O)CSc1nc2sc(C(N)=O)c(C)c2c(=O)n1-c1ccccc1 | 12 | 13 | 10 | 15 | – | – | – | –
23 | – | – | – | – | CSc1nc2sc(C(N)=O)c(C)c2c(=O)n1-c1ccccc1 | 12 | 13 | 10 | 15 | – | – | – | –
24 | – | – | – | – | CCSc1nc2sc(C(N)=O)c(C)c2c(=O)n1-c1ccccc1 | 12 | 16 | 10 | 15 | – | – | – | –
25 | – | – | – | – | Cc1c(C(N)=O)sc2nc[nH]c(=O)c12 | 12 | 13 | 10 | 15 | – | – | – | –
26 | – | – | – | – | Cc1c(C(N)=O)sc2ncn(Cc3ccccc3)c(=O)c12 | 16 | 15 | 10 | 15 | – | – | – | –
27 | – | 125 (≈ 494 µM) | – | – | Cc1c(C(N)=O)sc2ncn(CCO)c(=O)c12 | 17 | 15 | 10 | 15 | – | – | 97.1 | 43.8
28 | 125 (≈ 429 µM) | – | – | – | Cc1c(C(N)=O)sc2ncn(C3CCCCC3)c(=O)c12 | 12 | 17 | 10 | 15 | – | – | – | –
29 | 125 (≈ 462 µM) | – | – | – | CCOC(=O)c1c(NC(C)=O)sc(C(N)=O)c1C | 12 | 16 | 10 | 15 | – | – | – | –
30 | – | 125 (≈ 525 µM) | – | – | Cc1c(C(N)=O)sc2nc(C)n(N)c(=O)c12 | 17 | 15 | 10 | 15 | – | – | – | –
31 | – | – | – | – | Cc1c(C(N)=O)sc2nc(C)n(NC(=S)Nc3ccccc3)c(=O)c12 | 12 | 15 | 10 | 15 | – | – | – | –
32 | 7.81 (≈ 22.4 µM) | 125 (≈ 358 µM) | 3.91 (≈ 11.2 µM) | – | CC1(C)S[C@@H]2[C@H](NC(=O)[C@H](N)c3ccccc3)C(=O)N2[C@H]1C(=O)O [AMPICILLIN] | 18 | 26 | 30 | – | – | – | – | –
33 | – | – | – | 7.81 (≈ 22.6 µM) | Clc1ccccc1C(c1ccccc1)(c1ccccc1)n1ccnc1 [CLOTRIMAZOLE] | – | – | – | 28 | – | – | – | –
